# Assay results taken from patent US10093675B2, “6,8-disubstituted-9-(heterocyclyl)purines, compositions containing these derivatives and their use in cosmetic and medicinal applications” (USTAV EXPERIMENTALNI BOTANIKY AV CR, V.V.I., priority 2014, dated 2018).
# Experiments:
# [1] = system: excised wheat leaf tips (Triticum aestivum cv. Hereward); assay: Senescence inhibition on winter wheat leaf segments (retention of chlorophyll); assay type: in vivo; conditions: 10^−4 mol/L; 96 hours in the dark; activity of kinetin set at 100%
# Description: (§1) Seeds of winter wheat, Triticum aestivum cv. Hereward, were washed under running water for 24 hours and then sown on vermiculite soaked with Knop's solution. They were placed in the grown chamber at 25° C. with a 16/8 hours light period at […]. After 7 days, the first leaf was fully developed and the second leaf had started to grow. A tip section of the first leaf, approximately 35 mm long, was removed from 5 seedlings and trimmed slightly to a combined weight of 100 mg. The basal ends of the five leaf tips were placed in the wells of a microtiter polystyrene plate containing […] of a cytokinin solution each. The entire plate was inserted into a plastic box lined with paper tissues soaked in distilled water to prevent leaf sections from drying out. After 96 hours incubation in the dark at 25° C., the leaves were removed and chlorophyll extracted by heating at 80 C for 10 min in 5 ml of 80% ethanol (v/v). The sample volume was then restored to 5 ml by the addition of 80% ethanol (v/v). The absorbance of the extract was recorded at 665 nm. In addition, chlorophyll extracts from fresh leaves and leaf tips incubated in deionized water were measured. From the obtained data, the concentration with highest activity was selected for each compound tested. Relative activity of the compound at this concentration was calculated (see Table 6 below). The activity obtained for 10^−4 M kinetin (Kin) was set as 100%. The values shown are means of five replicates and the whole experiment was repeated twice.
# The compounds to be tested were dissolved in dimethylsulfoxide (DMSO) and the solution brought up to 10^−3 M with distilled water. […] As summarized in Table 6 below, the presence of C-8 substitutent was beneficial and led to increase of antisenescent properties.
# [2] = system: cytokinin-dependent tobacco callus Nicotiana tabacum L. cv. Wisconsin 38; assay: Plant cell division: growth of cytokinin-dependent tobacco callus; assay type: cell-based; conditions: for Activity (%); (s.d.): relative activity at concentration with highest activity, 10^−6 M kinetin set at 100%; for Concentration with highest activity (mol/l): tobacco callus fresh weight increase after four weeks, tested 10^−8 M to 10^−4 M
# Description: Cytokinin-dependent tobacco callus Nicotiana tabacum L. cv. Wisconsin 38 was maintained at 25° C. in darkness on modified MS medium, containing 4 μmol/l nicotinic acid, 2.4 μmol/l pyridoxine hydrochloride, 1.2 μmol/l thiamine, 26.6 μmol/l glycine, 1.37 μmol/l glutamine, 1.8 μmol/l myo-inositol, 30 g/l of sucrose, 8 g/l of agar, 5.37 μmol/l NAA and 0.5 μmol/l BAP. Subcultivation was carried out every three weeks. Fourteen days before the bioassay, the callus tissue was transferred to the media without BAP. Biological activity was determined from the increase in fresh callus weight after four weeks of cultivation. Five replicates were prepared for each cytokinin concentration and the entire test was repeated twice. From the obtained data, the concentration with highest activity was selected for each compound tested. Relative activity at this concentration was calculated (see Table 17 below). The activity obtained for 10^−6 M kinetin (Kin) was set as 100%.
# The cytokinins to be tested were dissolved in dimethylsulfoxide (DMSO) and the solution brought up to 10^−3M with distilled water.
# [3] = system: normal diploid fibroblasts BJ; assay: In vitro cytotoxic activity (Calcein AM), BJ; assay type: cell-based, human; conditions: 72 hours, read-out: Cell line tested/IC50 (μmol/L) BJ
# Text: (§2) Because toxic compounds negatively influence metabolic processes of cells, many standard cytotoxicity assays are based on measurement of metabolisation rate of various artificial substrates. Resulting product is then quantified, for example, by means of spectrometry. The assays can be easily modified for use in 96-well plates. For evaluation of cytotoxicity of the […] of this invention, a microtiter assay based on quantification of metabolisation of Calcein AM was used. The assay is widely used in drug screening programs and in chemosensitivity testing. In live cells, Calcein AM is enzymatically hydrolysed and accumulation of resulting calcein is manifested by green fluorescence.
# (§3) The following human cell lines were used for routine screening of the compounds: normal diploid fibroblasts BJ, T-lymphoblastic leukemia cell line CEM, promyelocytic leukemia cell line HL-60, erytroid leukemia cell line K-562, breast carcinoma cell line MCF-7, osteosarcoma cell line HOS and melanoma cell line G-361. The cells were maintained in Nunc/Corning 80 cm^2 plastic tissue culture flasks and cultured in cell culture medium (DMEM with 5 g/l glucose, 2 mM glutamine, 100 U/ml penicillin, 100 mmg/ml streptomycin, 10% fetal calf serum and sodium bicarbonate). The cell suspensions were prepared and diluted according to the particular cell type and the expected target cell density (2.500-30.000 cells per well based on cell growth characteristics) and pipetted (80 μl) into 96-well plates. Inoculates were allowed a pre-incubation period of 24 hours at 37° C. and 5% CO2 for stabilization. Tested compound was added in total volume of 20 μl of water at time zero. Usually, test compound was evaluated at six 3-fold dilutions. In routine testing, the highest concentration tested was 100 μM, but it could have been adjusted because of limited solubility of a compound. All drug concentrations were tested in triplicates.
# (§4) Incubations of cells with the test compounds lasted for 72 hours at 37° C., in 5% CO2 atmosphere and 100% humidity. At the end of incubation period Calcein AM in PBS was added into final concentration of 1 μg/ml. After another 1 hour of incubation fluorescence (FD) was measured with the Labsystem FIA Reader Fluoroscan Ascent (UK). Growth inhibition (GI) was estimated using the following equitation: GI=(mean FDdrug exposed wells−mean FDblank)/(mean FDcontrol wells−mean FDblank)×100%. The GI50 value, the drug concentration causing 50% reduction of Calcein AM conversion, was calculated from the obtained dose response curves.
# [4] = system: T-lymphoblastic leukemia cell line CEM; assay: In vitro cytotoxic activity (Calcein AM), CEM; assay type: cell-based, human; conditions: 72 hours, read-out: Cell line tested/IC50 (μmol/L) CEM
# Text: as §2, §3, §4
# [5] = system: erytroid leukemia cell line K-562; assay: In vitro cytotoxic activity (Calcein AM), K-562; assay type: cell-based, human; conditions: 72 hours, read-out: Cell line tested/IC50 (μmol/L) K-562
# Text: as §2, §3, §4
# [6] = system: breast carcinoma cell line MCF-7; assay: In vitro cytotoxic activity (Calcein AM), MCF-7; assay type: cell-based, human; conditions: 72 hours, read-out: Cell line tested/IC50 (μmol/L) MCF7
# Text: as §2, §3, §4
# [7] = system: osteosarcoma cell line HOS; assay: In vitro cytotoxic activity (Calcein AM), HOS; assay type: cell-based, human; conditions: 72 hours, read-out: Cell line tested/IC50 (μmol/L) HOS
# Text: as §2, §3, §4
# [8] = system: melanoma cell line G-361; assay: In vitro cytotoxic activity (Calcein AM), G-361; assay type: cell-based, human; conditions: 72 hours, read-out: Cell line tested/IC50 (μmol/L) G-361
# Text: as §2, §3, §4
# [9] = system: Human diploid fibroblast BJ; assay: In vitro cytotoxic activity (MTT); assay type: cell-based; conditions: 72 hours incubation; concentration causing 20% decrease in mitochondrial dehydrogenase activity
# Description: MTT (metabolic tetrazolium toxicity) assay is a standard colorimetric assay for evaluation of cytotoxicity. Mitochondrial dehydrogenase activity converts yellow MTT into violet formazan which is measured by means of spectrometry.
# Human diploid fibroblast BJ (passage 18-22) were seeded into 96-well plate (5.000 cells per well). After 6 hours cultivation medium (DMEM with 5 g/l glucose, 2 mM glutamine, 100 U/ml penicillin, 100 mmg/ml streptomycin, 10% fetal calf serum and sodium bicarbonate) was replaced with the cultivation medium containing test compounds in concentration range of 0-200 µM. Highest concentration was adjusted if the solubility of the compound was limiting. Every concentration was tested in pentaplicate. MTT was added to the cells after 72 hours incubation (final concentration 0.5 mg/ml) and incubation continued for another 3 hours. MTT was solubilised by DMSO and absorbance at 570 nm was measured. Growth inhibition (GI) was estimated using the following equitation: GI=(mean A drug exposed wells−mean Ablank/mean Acontrol wells−mean Ablank)×100%. The GI20 value, the drug concentration causing 20% decrease in mitochondrial dehydrogenase activity, was calculated from the obtained dose response curves.
# [10] = system: Salmonella typhimurium histidien auxotrophs TA98 and TA100; assay: Ames test; assay type: cell-based; conditions: 2.5 to 5000 μg/plate; presence and absence of Aroclor-induced rat liver S9
# Outline: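 Strains TA98 and TA100 exposed to compounds in DMSO at 2.5, 5.0, 15, 50, 500, 1500 and 5000 μg/plate following standard Ames/Maron protocols.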
# [11] = system: detached leaves of Triticum aestivum cv. Hereward; assay: Membrane lipid peroxidation (MDA, TBA method) in detached wheat leaves during dark senescence; assay type: in vivo; conditions: four days in the dark, Control 18.9 (±2.2)
# Description: A typical symptom associated with senescence as a direct consequence of increased reactive oxygen species is lipid peroxidation. Therefore the levels of MDA, a decomposition product of lipid peroxidation, were measured in detached wheat leaves that were exposed to the prepared novel derivatives and kinetin for four days in the dark as described in Example 8. MDA levels were measured using a thiobarbituric acid (TBA) method. In detail, 100 mg of fresh plant material was homogenized by high speed shaking in a ball mill (MM301, Retsch, Germany) with 1 mL of 80% methanol. The crude extract was centrifuged at 10,000×g for 5 min, and 100 μL aliquot of supernatant was vortexed with 100 μL of 0.5% (w/v) TBA containing 0.1% (w/v) trichloroacetic acid, and the resulting solution was then incubated for 30 min at 95° C. The samples were quickly cooled on ice and recentrifuged for 5 min at 1000×g. The absorbance of supernatant was measured at 532 nm with background subtraction at 600 nm and the amount of MDA-TBA complex was calculated from the coefficient of absorbance 155 mM^−1cm^−1.
# as §1
Structure (SMILES),"Activity (%) (s.d.), retention of chlorophyll [1]",Activity (%); (s.d.) [2],Concentration with highest activity (mol/l) [2],IC50 [3],IC50 [4],IC50 [5],IC50 [6],IC50 [7],IC50 [8],GI20 [9],mutagenic response [10],MDA (nmol/g FW) [11]
Fc1cccc(CNc2ncnc3c2nc(Cl)n3C2CCCCO2)c1 (stereo not shown) [Compound 7],110 (±2) %,114 (±5) %,10^−6-10^−4 mol/l,> 100 µmol/L,> 100 µmol/L,> 50 µmol/L,> 100 µmol/L,> 100 µmol/L,> 100 µmol/L,>200 µM,–,–
COc1cccc(CNc2ncnc3c2nc(Cl)n3C2CCCCO2)c1 (stereo not shown) [Compound 8],125 (±6) %,119 (±7) %,10^−6-10^−4 mol/l,> 100 µmol/L,> 100 µmol/L,> 100 µmol/L,> 100 µmol/L,> 100 µmol/L,> 100 µmol/L,>200 µM,–,–
COc1cccc(CNc2ncnc3c2nc(Br)n3C2CCCCO2)c1 (stereo not shown) [Compound 28],126 (±7) %,107 (±2) %,10^−6-10^−4 mol/l,> 50 µmol/L,> 50 µmol/L,> 50 µmol/L,> 50 µmol/L,> 50 µmol/L,> 50 µmol/L,>100 µM,–,–
CSc1nc2c(NCc3cccc(O)c3)ncnc2n1C1CCCCO1 (stereo not shown) [Compound 149],–,107 (±1) %,10^−6-10^−4 mol/l,> 50 µmol/L,> 50 µmol/L,> 50 µmol/L,> 50 µmol/L,> 50 µmol/L,> 50 µmol/L,>100 µM,no positive mutagenic responses,–
COc1cccc(CNc2ncnc3c2nc(SC)n3C2CCCCO2)c1 (stereo not shown) [Compound 150],–,105 (±2) %,10^−6-10^−5 mol/l,> 50 µmol/L,> 50 µmol/L,> 50 µmol/L,> 50 µmol/L,> 50 µmol/L,> 50 µmol/L,>100 µM,no positive mutagenic responses,–
CSc1nc2c(NCc3cccc(F)c3)ncnc2n1C1CCCCO1 (stereo not shown) [Compound 151],–,109 (±5) %,10^−6-10^−4 mol/l,> 50 µmol/L,> 50 µmol/L,> 50 µmol/L,> 50 µmol/L,> 50 µmol/L,> 50 µmol/L,>100 µM,no positive mutagenic responses,–
COc1nc2c(NCc3ccco3)ncnc2n1C1CCCO1 (stereo not shown) [Compound 206],–,110 (±3) %,10^−6-10^−4 mol/l,> 50 µmol/L,> 50 µmol/L,> 50 µmol/L,> 50 µmol/L,> 50 µmol/L,> 50 µmol/L,>100 µM,–,10.5 (±0.4) nmol/g FW
COc1nc2c(NCC=C(C)CO)ncnc2n1C1CCCO1 (stereo not shown) [Compound 208],–,119 (±7) %,10^−6-10^−4 mol/l,> 50 µmol/L,> 50 µmol/L,> 50 µmol/L,> 50 µmol/L,> 50 µmol/L,> 50 µmol/L,>100 µM,no positive mutagenic responses,–
CSc1nc2c(NCc3ccco3)ncnc2n1C1CCCO1 (stereo not shown) [Compound 216],–,103 (±4) %,10^−6-10^−4 mol/l,> 50 µmol/L,> 50 µmol/L,> 50 µmol/L,> 50 µmol/L,> 50 µmol/L,> 50 µmol/L,>100 µM,no positive mutagenic responses,–
CSc1nc2c(NCC=C(C)C)ncnc2n1C1CCCO1 (stereo not shown) [Compound 218],–,113 (±5) %,10^−6-10^−4 mol/l,> 50 µmol/L,> 50 µmol/L,> 50 µmol/L,> 50 µmol/L,> 50 µmol/L,> 50 µmol/L,>100 µM,no positive mutagenic responses,–
